# In US7915270B2, “Oxazole ketones as modulators of fatty acid amide hydrolase” (The Scripps Research Institute, priority 2006, dated 2011):
# Experiments:
# Rat FAAH = target: T1, Rat FAAH (Rattus norvegicus, UniProt P97612); test: Assay Method 2: FAAH assay, 3H-anandamide hydrolysis in cell homogenate (SK-N-MC cells transfected with rat FAAH); type: biochemical; conditions: 3H-AEA 80 nM, rt 1 h, pH 9
# T1 construct: expressed in transfected cells
# T1 sequence (P97612 1-579): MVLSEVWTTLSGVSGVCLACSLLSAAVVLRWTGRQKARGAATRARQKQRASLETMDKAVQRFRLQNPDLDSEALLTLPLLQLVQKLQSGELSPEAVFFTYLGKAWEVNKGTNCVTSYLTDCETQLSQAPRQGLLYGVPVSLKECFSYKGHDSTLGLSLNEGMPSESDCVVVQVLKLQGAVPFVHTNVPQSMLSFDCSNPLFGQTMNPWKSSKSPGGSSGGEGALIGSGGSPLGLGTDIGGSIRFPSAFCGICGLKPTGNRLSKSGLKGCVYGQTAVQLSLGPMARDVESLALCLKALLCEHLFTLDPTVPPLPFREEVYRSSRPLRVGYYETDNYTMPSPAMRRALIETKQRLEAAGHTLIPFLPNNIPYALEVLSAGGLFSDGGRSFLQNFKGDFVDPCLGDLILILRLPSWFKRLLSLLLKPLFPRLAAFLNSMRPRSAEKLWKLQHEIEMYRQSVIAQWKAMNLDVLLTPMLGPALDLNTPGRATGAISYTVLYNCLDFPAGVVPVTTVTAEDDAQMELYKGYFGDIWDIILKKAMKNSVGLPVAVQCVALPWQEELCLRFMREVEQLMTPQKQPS
# Method: A. Transfection of Cells with Rat FAAH
# (§1) A 10-cm tissue culture dish with a confluent monolayer of SK—N-MC cells was split 2 days (d) prior to transfection. Using sterile technique, the media was removed and the cells were detached from the dish by the addition of trypsin. One fifth of the cells were then placed onto a new 10-cm dish. Cells were grown in a 37° C. incubator with 5% CO2 in Minimal Essential Media Eagle with 10% Fetal Bovine Serum. After 2 d, cells were approximately 80% confluent. These cells were removed from the dish with trypsin and pelleted in a clinical centrifuge. The pellet was re-suspended in 400 μL complete media and transferred to an electroporation cuvette with a 0.4 cm gap between the electrodes. Supercoiled rat FAAH cDNA (1 μg) was added to the cells and mixed. The voltage for the electroporation was set at 0.25 kV, and the capacitance was set at 960 μF. After electroporation, the cells were diluted into complete media (10 mL) and plated onto four 10-cm dishes. Because of the variability in the efficiency of electroporation, four different concentrations of cells were plated. The ratios used were 1:20, 1:10, and 1:5, with the remainder of the cells being added to the fourth dish. The cells were allowed to recover for 24 h before adding the selection media (complete media with 600 μg/mL G418). After 10 d, dishes were analyzed for surviving colonies of cells. Dishes with well-isolated colonies were used. Cells from individual colonies were isolated and tested.
# The assay mixture consisted of 50 μL of the cell homogenate, 10 μL of the test compound, and 40 μL of anandamide [1-^3H-ethanolamine] (^3H-AEA, Perkin-Elmer, 10.3 Ci/mmol), which was added last, for a final tracer concentration of 80 nM. The reaction mixture was incubated at rt for 1 h. During the incubation, 96-well Multiscreen filter plates (catalog number MAFCNOB50; Millipore, Bedford, Mass., USA) were loaded with 25 μL of activated charcoal (Multiscreen column loader, catalog number MACL09625, Millipore) and washed once with 100 μL of MeOH. […] After the 1 h incubation, 60 μL of the reaction mixture were transferred to the charcoal plates, which were then assembled on top of the DYNEX plates using Centrifuge Alignment Frames (catalog number MACF09604, Millipore). The unbound labeled ethanolamine was centrifuged through to the bottom plate (5 min at 2000 rpm), which was preloaded with the scintillant, as described above. The plates were sealed and left at rt for 1 h before counting on a Hewlett Packard TopCount.
# FAAH [1] = target: T2, FAAH (Homo sapiens, UniProt O00519); test: Assay Method 1B: FAAH assay, 3H-anandamide hydrolysis in cell homogenate (T84 or SK-N-MC cells transfected with human FAAH); type: biochemical; parameters: expressed in transfected cells; conditions: 3H-AEA 80 nM, rt 1 h, pH 9
# T2 sequence (O00519 1-579): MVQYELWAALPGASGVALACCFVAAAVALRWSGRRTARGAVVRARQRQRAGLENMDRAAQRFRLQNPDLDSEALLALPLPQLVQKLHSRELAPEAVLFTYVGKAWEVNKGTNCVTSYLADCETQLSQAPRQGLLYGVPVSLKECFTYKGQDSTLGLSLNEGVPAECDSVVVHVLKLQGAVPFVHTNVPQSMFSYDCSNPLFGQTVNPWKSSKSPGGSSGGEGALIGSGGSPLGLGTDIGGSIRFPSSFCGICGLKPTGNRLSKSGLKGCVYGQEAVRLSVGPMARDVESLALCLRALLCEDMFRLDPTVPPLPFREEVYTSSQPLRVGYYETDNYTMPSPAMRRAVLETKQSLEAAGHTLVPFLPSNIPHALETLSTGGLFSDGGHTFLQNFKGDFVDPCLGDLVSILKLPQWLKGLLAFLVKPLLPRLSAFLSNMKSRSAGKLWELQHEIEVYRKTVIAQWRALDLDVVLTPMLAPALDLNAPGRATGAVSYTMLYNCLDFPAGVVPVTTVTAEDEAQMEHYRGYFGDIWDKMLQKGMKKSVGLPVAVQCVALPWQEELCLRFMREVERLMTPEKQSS
# Method: as §1, with “Transfection of Cells with Human FAAH A 10-cm” for “A 10-cm”, “electrodes. Supercoiled human FAAH cDNA” for “electrodes. Supercoiled rat FAAH cDNA”, “and tested. […] The reaction mixture was incubated at rt for 1 h. During the incubation, 96-well Multiscreen filter plates (catalog number MAFCNOB50; Millipore, Bedford, Mass., USA) were loaded with 25 μL of activated charcoal (Multiscreen column loader, catalog number MACL09625, Millipore) and washed once with 100 μL of MeOH. Also during the incubation, 96-well DYNEX MicroLite plates (catalog number NL510410) were loaded with 100 μL of MicroScint40 (catalog number 6013641, Packard Bioscience, Meriden, Conn., USA). After the 1 h incubation, 60 μL of the reaction mixture were transferred to the charcoal plates, which were then assembled on top of the DYNEX plates using Centrifuge Alignment Frames (catalog number MACF09604, Millipore). The unbound labeled ethanolamine was centrifuged through to the bottom plate (5 min at 2000 rpm), which was preloaded with the scintillant, as described above. The plates were sealed and left at rt for 1 h before counting on a Hewlett Packard TopCount.” for “and tested.”
# FAAH [2] = target: T3, FAAH (Rattus norvegicus, UniProt P97612); test: Assay Method 1A: FAAH enzyme assay, 14C-oleamide hydrolysis, solubilized liver plasma membrane extract;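 further: ki obtained by Dixon analysis, taking the x-intercept of inhibitor concentration versus reciprocal rate plots at fixed substrate level and correcting for substrate concentration relative to Km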
# T3 sequence (P97612 1-579): T1 sequence (P97612 1-579)
# Method: Linear least squares fits were used for all reaction progress curves and R^2 values were consistently >0.97. […] Ki values were determined by the Dixon Method (x-intercepts of weighted linear fits of [I] versus 1/rate plots at constant substrate concentration, which were converted to Ki values using the formula Ki=−xint/[1+[S]/Km]).
Compound,IC50 (Rat FAAH) [nM],IC50 (FAAH [1]) [nM],Ki (FAAH [2]) [nM]
"Nc1ccccc1-c1cnc(C(=O)CCCCCCc2ccccc2)o1 [Example 27, 1-(5-(2-Aminophenyl)oxazol-2-yl)-7-phenylheptan-1-one]",4000,1000,750
"COc1cccc(-c2cnc(C(=O)CCCCCCc3ccccc3)o2)c1 [Example 14, 1-(5-(3-Methoxyphenyl)oxazol-2-yl)-7-phenylheptan-1-one]",4500,100,40
"O=C(CCCCCCc1ccccc1)c1ncc(-c2ccccc2F)o1 [Example 10, 1-(5-(2-Fluorophenyl)oxazol-2-yl)-7-phenylheptan-1-one]",9000,1600,110
"O=C(CCCCCCc1ccccc1)c1ncc(-c2ccccc2C(=O)O)o1 [Example 60, 2-(2-(7-Phenylheptanoyl)oxazol-5-yl)benzoic acid]",3000,440,6000
"O=C(CCCCCCc1ccccc1)c1ncc(-c2cccc(F)c2)o1 [Example 11, 1-(5-(3-Fluorophenyl)oxazol-2-yl)-7-phenylheptan-1-one]",6300,220,60
"N#Cc1ccccc1-c1cnc(C(=O)CCCCCCc2ccccc2)o1 [Example 16, 2-(2-(7-Phenylheptanoyl)oxazol-5-yl)benzonitrile]",2000,110,–
"N#Cc1cccc(-c2cnc(C(=O)CCCCCCc3ccccc3)o2)c1 [Example 17, 3-(2-(7-Phenylheptanoyl)oxazol-5-yl)benzonitrile]",520,9,–
"O=C(CCCCCCc1ccccc1)c1ncc(-c2ccc(F)cc2)o1 [Example 12, 1-(5-(4-Fluorophenyl)oxazol-2-yl)-7-phenylheptan-1-one]",1000,100,–
"O=C(CCCCCCc1ccccc1)c1ncc(-c2cccc(C(=O)C(F)(F)F)c2)o1 [Example 5, 7-Phenyl-1-(5-(3-(2,2,2-trifluoroacetyl)phenyl)oxazol-2-yl)heptan-1-one]",500,40,–
"O=C(CCCCCCc1ccccc1)c1ncc(-c2cccc(O)c2)o1 [Example 31, 1-(5-(3-Hydroxyphenyl)oxazol-2-yl)-7-phenylheptan-1-one]",570,55,–

# Results, then the molecule that gave them:
IC50 (Rat FAAH) [nM],IC50 (FAAH [1]) [nM],Ki (FAAH [2]) [nM],Compound
100,15,12,"COC(=O)c1cccc(-c2cnc(C(=O)CCCCCCc3ccccc3)o2)c1 [Example 23, Methyl 3-(2-(7-phenylheptanoyl)oxazol-5-yl)benzoate]"
9,11,4,"COC(=O)c1ccc(-c2cnc(C(=O)CCCCCCc3ccccc3)o2)nc1 [Example 34, Methyl 6-(2-(7-phenylheptanoyl)oxazol-5-yl)nicotinate]"
75,6,7,"COC(=O)c1ccc(-c2cnc(C(=O)CCCCCCc3ccccc3)o2)s1 [Example 57, Methyl 5-(2-(7-phenylheptanoyl)oxazol-5-yl)thiophene-2-carboxylate]"
1.5,0.1,19,"O=C(CCCCCCc1ccccc1)c1ncc(-c2cc(=O)[nH]c(=O)[nH]2)o1 [Example 52, 6-(2-(7-Phenylheptanoyl)oxazol-5-yl)pyrimidine-2,4(1H,3H)-dione]"
500,340,125,"O=C(CCCCCCc1ccccc1)c1ncc(-c2ccccc2[N+](=O)[O-])o1 [Example 1, 1-(5-(2-Nitrophenyl)oxazol-2-yl)-7-phenylheptan-1-one]"
53,8,10,"NS(=O)(=O)c1ccc(-c2cnc(C(=O)CCCCCCc3ccccc3)o2)cc1 [Example 21, 4-(2-(7-Phenylheptanoyl)oxazol-5-yl)benzenesulfonamide]"
160,6,60,"O=C(O)c1ccc(-c2cnc(C(=O)CCCCCCc3ccccc3)o2)cc1 [Example 26, 4-(2-(7-Phenylheptanoyl)oxazol-5-yl)benzoic acid]"
150,180,> 50,"COC(=O)c1cccnc1-c1cnc(C(=O)CCCCCCc2ccccc2)o1 [Example 36, Methyl 2-(2-(7-phenylheptanoyl)oxazol-5-yl)nicotinate]"
20,11,6,"COC(=O)c1ccc(-c2cnc(C(=O)CCCCCCc3ccccc3)o2)o1 [Example 55, Methyl 5-(2-(7-phenylheptanoyl)oxazol-5-yl)furan-2-carboxylate]"
27,4,2,"NS(=O)(=O)c1cccc(-c2cnc(C(=O)CCCCCCc3ccccc3)o2)c1 [Example 20, 3-(2-(7-Phenylheptanoyl)oxazol-5-yl)benzenesulfonamide]"
60,10,–,"NC(=O)c1ccc(-c2cnc(C(=O)CCCCCCc3ccccc3)o2)cc1 [Example 9, 4-(2-(7-Phenylheptanoyl)oxazol-5-yl)benzamide]"
